From US20170319570A1, “Treatment of Multiple Sclerosis With Combination of Laquinimod and Dimethyl Fumarate” (Teva Pharmaceutical Industries, Ltd., priority 2012, published 2017)

Legend:
RRMS patients = conditions: Phase 2B trial; cited from earlier work
MOG-induced EAE = test: MOG-induced EAE, laquinimod alone or with add on DMF (Example 1A); format: in vivo, mouse; conditions: oral QD
MOG peptide induced EAE = conditions: cited from earlier work
MOG induced EAE = test: MOG-induced EAE, laquinimod in combination with DMF (Example 1B); format: in vivo, mouse; conditions: Day 1 to 30, dead or moribund/total
[1] = in vivo; cited from earlier work

SMILES	annualized relapse rate (RRMS patients)	new gadolinium enhancing lesions, T1 and T2 lesions (RRMS patients)	effectiveness on disease severity (MOG-induced EAE)	plasma levels of IL-10 (MOG peptide induced EAE; MOG peptide induced EAE)	glial inflammation (MOG peptide induced EAE; during MOG peptide induced EAE)	effectiveness on disease severity (MOG-induced EAE; 0.06 mg/kg laquinimod alone)	Mortality (MOG induced EAE; Group 2: laquinimod 5 mg/kg/day gavage qd)	Mortality (MOG induced EAE; Group 3: laquinimod 10 mg/kg/day gavage qd)	Mortality (MOG induced EAE; Group 4: laquinimod 25 mg/kg/day gavage qd)	oral bioavailability [1]
COC(=O)/C=C/C(=O)OC [DMF, Dimethyl (E)-but-2-Enedioate]	non-significant decrease	significant decreases	moderately effective	increased	reduced					
CCN(C(=O)c1c(O)c2c(Cl)cccc2n(C)c1=O)c1ccccc1 [Laquinimod]						moderately effective	0/15	0/15	0/15	high
